Reference: ChEMBL document CHEMBL4177612, “Discovery of tranylcypromine analogs with an acylhydrazone substituent as LSD1 inactivators: Design, synthesis and their biological evaluation” (Bioorg Med Chem Lett, 2017)
Activity calls are given as the source filed them. No cut-off for these calls is given here.

Key:
Format in all cases: functional, cell-based
MGC-803 [1] = test: Antiinvasive activity against human MGC803 cells at 0.25 to 1 uM after 24 hrs by DAPI staining based matrigel coated transwell assay
MGC-803 [2] = test: Effect on LSD1 level in human MGC803 cells at 1 to 4 uM after 4 days by immunofluorescence analysis
MGC-803 [3] = test: Anti-migratory activity against human MGC803 cells after 24 hrs by DAPI staining based transwell assay

Q: What does the source list for `CCN(CC)c1ccc(/C=N/NC(=O)CN[C@@H]2C[C@H]2c2ccc(F)c(F)c2)c(O)c1`?
A: Activity (MGC-803 [1]): Active; Activity (MGC-803 [2]): inactive; Activity (MGC-803 [3]): Dose-dependent effect
